SMILES strings stand for the structures.

The target in assay [1] is T1, yPDE2 (high-affinity phosphodiesterase type 2) (Saccharomyces cerevisiae, UniProt P06776).
T1 construct: gene PDE2
T1 sequence (P06776 1-526): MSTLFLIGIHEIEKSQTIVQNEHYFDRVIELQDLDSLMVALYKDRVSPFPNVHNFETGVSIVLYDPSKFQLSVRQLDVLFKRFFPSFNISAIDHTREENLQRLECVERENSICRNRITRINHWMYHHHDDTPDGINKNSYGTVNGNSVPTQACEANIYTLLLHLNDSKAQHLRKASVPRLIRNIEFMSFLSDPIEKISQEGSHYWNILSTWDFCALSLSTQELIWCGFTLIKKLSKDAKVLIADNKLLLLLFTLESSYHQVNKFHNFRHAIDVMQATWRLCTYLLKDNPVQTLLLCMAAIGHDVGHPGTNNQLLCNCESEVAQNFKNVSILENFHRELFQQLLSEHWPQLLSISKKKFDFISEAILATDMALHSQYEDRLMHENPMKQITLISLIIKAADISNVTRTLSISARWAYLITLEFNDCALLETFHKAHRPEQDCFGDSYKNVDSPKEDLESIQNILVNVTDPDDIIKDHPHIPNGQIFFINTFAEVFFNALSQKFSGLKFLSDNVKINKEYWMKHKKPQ
In words: HPLC-UV assay of cAMP hydrolysis; Ki converted from I50 (competitive equation). Format: biochemical. As to conditions: read-out: Inhibitors.

Assay [2] addresses T1, yPDE2 (high-affinity phosphodiesterase type 2). As to the kind of experiment: HPLC-UV assay of cAMP hydrolysis; Lineweaver-Burk and Km app/Km plot at several inhibitor concentrations. The following applies: read-out: Inhibitors. Format: biochemical.

As to `Oc1cc(O)cc(/C=C/c2ccc(O)cc2O)c1` [oxyresveratrol], in assay [1], the Ki was determined as 46 ± 4 µM. On to `Oc1cc(O)cc(/C=C/c2ccc(O)c(O)c2)c1` [piceatannol], for which the Ki in assay [1] worked out at 50 ± 5 µM. As for `Oc1ccc(/C=C/c2cc(O)cc(O)c2)cc1` [resveratrol], the Ki in assay [2] is 63 ± 3 µM. In the case of `O=C(Nc1c(Cl)cncc1Cl)c1ccc(OC(F)F)c(OCC2CC2)c1` [roflumilast], the Ki in assay [1] was 0.3 ± 0.02 µM.

These data come from PMC7559934, “Characterization of Resveratrol, Oxyresveratrol, Piceatannol and Roflumilast as Modulators of Phosphodiesterase Activity. Study of Yeast Lifespan” (Pharmaceuticals, 2020).
